According to US20060069132A1, “Azolecarboxamide herbicides” (priority 2004, published 2006):
Like-named read-outs stand apart in the source and are kept apart here.

What was measured:
[1] = system: barnyardgrass; experiment: Test A pre-/postemergence herbicide test; type: in vivo, Echinochloa crus-galli; details: for pest or weed control at 500 g/ha / pest or weed control at 2000 g/ha: Echinochloa crus-galli, 240 h
Procedure, shortened: (§1)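 Plants are held in greenhouse about ten days after treatment, then compared with untreated controls and scored 0 (no effect) to 100 (complete control). Preemergence dosing is a directed soil spray on sown sandy loam; postemergence dosing is spray to runoff at 2–10 cm height.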

[2] = system: redroot pigweed; experiment: Test A pre-/postemergence herbicide test; type: in vivo, Amaranthus retroflexus; details: for pest or weed control at 500 g/ha / pest or weed control at 2000 g/ha: Amaranthus retroflexus, 240 h
Procedure, shortened: as §1

[3] = system: lambsquarters; experiment: Test B pre-/postemergence herbicide test; type: in vivo, Chenopodium album; details: for pest or weed control at 125 g/ha / pest or weed control at 500 g/ha: Chenopodium album, 336 h
Procedure, shortened: (§2)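 Response was scored visually 13 to 15 days after treatment against untreated greenhouse controls, 0 meaning no effect and 100 complete control. Formulations (solvent mixture plus surfactant) went onto soil after planting, onto foliage of 1- to 4-leaf plants, and onto 2-leaf plants in a flooded paddy set including rice and barnyardgrass.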

[4] = system: morningglory; experiment: Test B pre-/postemergence herbicide test; type: in vivo, Ipomoea coccinea; details: for pest or weed control at 125 g/ha / pest or weed control at 500 g/ha: Ipomoea, 336 h
Procedure, shortened: as §2

[5] = Postemergence, 500 g ai/ha, 0 to 100 scale, 0 no effect, 100 complete control
[6] = Postemergence, 2000 g ai/ha, 0 to 100 scale, 0 no effect, 100 complete control
[7] = Preemergence, 500 g ai/ha, visual rating, 0 to 100 scale (0 no effect, 100 complete control)
[8] = Preemergence, 2000 g ai/ha, 0 to 100 scale, 0 no effect, 100 complete control
[9] = Postemergence, 500 g ai/ha, visual rating after 13 to 15 days, scale 0 (no effect) to 100 (complete control)
[10] = postemergence, 125 g ai/ha, visual rating, scale 0 (no effect) to 100 (complete control)
[11] = preemergence, 125 g ai/ha, 0 to 100 scale, 0 is no effect, 100 is complete control
[12] = post-emergence, postemergence, 125 g ai/ha, visual rating, scale 0 (no effect) to 100 (complete control), read-out: Lambsquarters plant response rating
[13] = pre-emergence, 125 g ai/ha, 0 = no effect, 100 = complete control, read-out: Lambsquarters plant response rating (0 to 100 scale)
[14] = pre-emergence, 500 g ai/ha, visual rating, 0 = no effect, 100 = complete control, read-out: Plant response rating, Lambsquarters
[15] = post-emergence, postemergence, 125 g ai/ha, visual rating, scale 0 (no effect) to 100 (complete control), read-out: Morningglory plant response rating
[16] = pre-emergence, 125 g ai/ha, 0 = no effect, 100 = complete control, read-out: Morningglory plant response rating (0 to 100 scale)
[17] = pre-emergence, 500 g ai/ha, visual rating, 0 = no effect, 100 = complete control, read-out: Plant response rating, Morningglory
[18] = post-emergence, postemergence, 500 g ai/ha, scale 0 to 100, 0 is no effect, 100 is complete control, read-out: Lambsquarters plant response rating
[19] = post-emergence, postemergence, 500 g ai/ha, scale 0 to 100, 0 is no effect, 100 is complete control, read-out: Morningglory plant response rating
[20] = 125 g ai/ha, 0 = no effect, 100 = complete control, preemergence
[21] = postemergence, 500 g ai/ha, scale 0 to 100, 0 is no effect, 100 is complete control
[22] = 500 g ai/ha, visual rating, 0 = no effect, 100 = complete control, preemergence
[23] = 125 g ai/ha, visual rating, scale 0 (no effect) to 100 (complete control), postemergence
[24] = 125 g ai/ha, 0 is no effect, 100 is complete control, preemergence
[25] = Postemergence, 500 g ai/ha, scale 0 (no effect) to 100 (complete control)
[26] = postemergence, 125 g ai/ha, scale 0 to 100

CCn1nc(C(C)(C)C)cc1C(=O)Nc1cccc(C(=O)NCC(F)(F)F)c1 [Compound 43, 3-(1,1-dimethylethyl)-1-ethyl-N-[3-[[(2,2,2-trifluoroethyl)amino]carbonyl]-phenyl]-1H-pyrazole-5-carboxamide]
pest or weed control at 500 g/ha ([1]; post-emergence, Postemergence, 500 g ai/ha, 0 to 100 scale, 0 no effect, 100 complete control, read-out: Plant response rating, Barnyardgrass): 90%
pest or weed control at 2000 g/ha ([1]; post-emergence, Postemergence, 2000 g ai/ha, 0 to 100 scale, 0 no effect, 100 complete control, read-out: Plant response rating, Barnyardgrass): 100%
pest or weed control at 500 g/ha ([1]; pre-emergence, Preemergence, 500 g ai/ha, visual rating, 0 to 100 scale (0 no effect, 100 complete control), read-out: Barnyardgrass plant response rating): 60%
pest or weed control at 2000 g/ha ([1]; pre-emergence, Preemergence, 2000 g ai/ha, 0 to 100 scale, 0 no effect, 100 complete control, read-out: Barnyardgrass plant response rating): 90%
pest or weed control at 500 g/ha ([2]; post-emergence, Postemergence, 500 g ai/ha, 0 to 100 scale, 0 no effect, 100 complete control, read-out: Plant response rating, Pigweed): 100%
pest or weed control at 2000 g/ha ([2]; post-emergence, Postemergence, 2000 g ai/ha, 0 to 100 scale, 0 no effect, 100 complete control, read-out: Plant response rating, Pigweed): 100%
pest or weed control at 500 g/ha ([2]; pre-emergence, Preemergence, 500 g ai/ha, visual rating, 0 to 100 scale (0 no effect, 100 complete control), read-out: Pigweed plant response rating): 100%
pest or weed control at 2000 g/ha ([2]; pre-emergence, Preemergence, 2000 g ai/ha, 0 to 100 scale, 0 no effect, 100 complete control, read-out: Pigweed plant response rating): 100%
pest or weed control at 125 g/ha ([3]; post-emergence, Postemergence, 125 g ai/ha, scale 0 (no effect) to 100 (complete control), read-out: Lambsquarters plant response rating): 90%
pest or weed control at 500 g/ha ([3]; post-emergence, Postemergence, 500 g ai/ha, visual rating after 13 to 15 days, scale 0 (no effect) to 100 (complete control), read-out: Plant response rating, Lambsquarters): 90%
pest or weed control at 500 g/ha ([3]; pre-emergence, Preemergence, 500 g ai/ha, scale 0 to 100, read-out: Lambsquarters plant response rating): 100%
pest or weed control at 125 g/ha ([3]; pre-emergence, preemergence, 125 g ai/ha, 0 to 100 scale, 0 is no effect, 100 is complete control, read-out: Plant response rating, Lambsquarters): 90%
pest or weed control at 125 g/ha ([4]; post-emergence, Postemergence, 125 g ai/ha, scale 0 (no effect) to 100 (complete control), read-out: Morningglory plant response rating): 80%
pest or weed control at 500 g/ha ([4]; post-emergence, Postemergence, 500 g ai/ha, visual rating after 13 to 15 days, scale 0 (no effect) to 100 (complete control), read-out: Plant response rating, Morningglory): 100%
pest or weed control at 500 g/ha ([4]; pre-emergence, Preemergence, 500 g ai/ha, scale 0 to 100, read-out: Morningglory plant response rating): 10%
pest or weed control at 125 g/ha ([4]; pre-emergence, preemergence, 125 g ai/ha, 0 to 100 scale, 0 is no effect, 100 is complete control, read-out: Plant response rating, Morningglory): 0%

CCn1nc(C(C)(C)C)cc1C(=O)Nc1cccc(C(=O)NOC)c1 [Compound 67]
Plant response rating, Barnyardgrass [1, 5]: 0
Plant response rating, Barnyardgrass [1, 6]: 25
Barnyardgrass plant response rating [1, 7]: 0
Barnyardgrass plant response rating [1, 8]: 30
Plant response rating, Pigweed [2, 5]: 50
Plant response rating, Pigweed [2, 6]: 85
Pigweed plant response rating [2, 7]: 0
Pigweed plant response rating [2, 8]: 90
Plant response rating, Lambsquarters [3, 9]: 60
Lambsquarters plant response rating [3, 10]: 40
Plant response rating, Lambsquarters [3, 11]: 0
Plant response rating, Morningglory [4, 9]: 10
Morningglory plant response rating [4, 10]: 0
Plant response rating, Morningglory [4, 11]: 0

CCn1nc(C(C)(C)C)cc1C(=O)Nc1ccc(F)c(C(=O)N(C)C)c1 [Compound 236, N-[3-[(dimethylamino)carbonyl]-4-fluorophenyl]-3-(1,1-dimethylethyl)-1-ethyl-1H-pyrazole-5-carboxamide]
pest or weed control at 125 g/ha [3, 12]: 60%
pest or weed control at 500 g/ha ([3]; post-emergence, postemergence, 500 g ai/ha, visual rating, scale 0 (no effect) to 100 (complete control), read-out: Lambsquarters plant response rating): 70%
pest or weed control at 125 g/ha [3, 13]: 50%
pest or weed control at 500 g/ha [3, 14]: 100%
pest or weed control at 125 g/ha [4, 15]: 10%
pest or weed control at 500 g/ha ([4]; post-emergence, postemergence, 500 g ai/ha, visual rating, scale 0 (no effect) to 100 (complete control), read-out: Morningglory plant response rating): 60%
pest or weed control at 125 g/ha [4, 16]: 0%
pest or weed control at 500 g/ha [4, 17]: 20%

CCNC(=O)c1cc(NC(=O)c2cn(C(C)(C)C)nc2CC)ccc1F [Compound 241, 1-(1,1-dimethylethyl)-3-ethyl-N-[3-[(ethylamino)carbonyl]-4-fluorophenyl]-1H-pyrazole-4-carboxamide]
pest or weed control at 125 g/ha [3, 12]: 30%
pest or weed control at 500 g/ha [3, 18]: 50%
pest or weed control at 125 g/ha [3, 13]: 80%
pest or weed control at 500 g/ha [3, 14]: 100%
pest or weed control at 125 g/ha [4, 15]: 20%
pest or weed control at 500 g/ha [4, 19]: 70%
pest or weed control at 125 g/ha [4, 16]: 0%
pest or weed control at 500 g/ha [4, 17]: 0%

CCn1nc(C(C)(C)C)cc1C(=O)Nc1cc(C(=O)OC(C)C)c(F)cc1F [Compound 248]
Lambsquarters plant response rating (0 to 100 scale) [3, 20]: 0
Lambsquarters plant response rating [3, 10]: 60
Lambsquarters plant response rating [3, 21]: 70
Morningglory plant response rating (0 to 100 scale) [4, 20]: 0
Plant response rating, Morningglory [4, 22]: 0
Morningglory plant response rating [4, 10]: 20
Morningglory plant response rating [4, 21]: 50

CCOC(=O)c1ccc(F)c(NC(=O)c2cc(C3(C)CC3)nn2CC)c1 [Compound 296]
Lambsquarters plant response rating (0 to 100 scale) [3, 20]: 90
Lambsquarters plant response rating [3, 23]: 50
Plant response rating, Lambsquarters [3, 22]: 100
Lambsquarters plant response rating [3, 21]: 70
Morningglory plant response rating (0 to 100 scale) [4, 20]: 10
Morningglory plant response rating [4, 23]: 50
Plant response rating, Morningglory [4, 22]: 20
Morningglory plant response rating [4, 21]: 80

CCc1nn(C(C)C)nc1C(=O)Nc1cccc(C(=O)N(C)C)c1 [Compound 358, N-[3-[(dimethylamino)carbonyl)phenyl]-5-ethyl-2-(1-methylethyl)-2H-1,2,3-triazole-4-carboxamide]
Plant response rating (0 to 100 scale), Lambsquarters [3, 24]: 100
pest or weed control at 125 g/ha ([3]; post-emergence, 125 g ai/ha, visual rating, scale 0 (no effect) to 100 (complete control), read-out: Lambsquarters plant response rating): 30%
pest or weed control at 500 g/ha [3, 18]: 50%
pest or weed control at 500 g/ha [3, 14]: 100%
Plant response rating (0 to 100 scale), Morningglory [4, 24]: 50
pest or weed control at 125 g/ha ([4]; post-emergence, 125 g ai/ha, visual rating, scale 0 (no effect) to 100 (complete control), read-out: Morningglory plant response rating): 20%
pest or weed control at 500 g/ha [4, 19]: 50%
pest or weed control at 500 g/ha [4, 17]: 100%

C#CCNC(=O)c1cccc(NC(=O)c2nn(C(C)(C)C)nc2CC)c1 [Compound 380]
Plant response rating (0 to 100 scale), Lambsquarters [3, 24]: 90
Lambsquarters plant response rating [3, 23]: 60
Lambsquarters plant response rating [3, 25]: 70
Plant response rating (0 to 100 scale), Morningglory [4, 24]: 10
Morningglory plant response rating [4, 23]: 20
Morningglory plant response rating [4, 25]: 60

C#CCOc1cccc(NC(=O)c2cc(C(C)(C)C)nn2CC)c1 [Compound 411]
Plant response rating (0 to 100 scale), Lambsquarters [3, 24]: 50
Lambsquarters plant response rating [3, 25]: 90
Lambsquarters plant response rating [3, 26]: 20
Plant response rating (0 to 100 scale), Morningglory [4, 24]: 0
Morningglory plant response rating [4, 25]: 0
Morningglory plant response rating [4, 26]: 0

C=CCOc1cccc(NC(=O)c2cc(C(C)(C)C)nn2CC)c1 [Compound 412]
Plant response rating (0 to 100 scale), Lambsquarters [3, 24]: 0
Lambsquarters plant response rating [3, 25]: 100
Lambsquarters plant response rating [3, 26]: 60
Plant response rating (0 to 100 scale), Morningglory [4, 24]: 0
Morningglory plant response rating [4, 25]: 0
Morningglory plant response rating [4, 26]: 0
